Results on 25 compounds are retold here after patent publication US11529341B2, “Bicyclic compounds as inhibitors of PD1/PD-L1 interaction/activation” (JUBILANT PRODEL LLC, priority 2018, dated 2022).

The target of this test is T1, PD-1/PD-L1 interaction (Homo sapiens, UniProt Q9NZQ7).
T1 construct: Tag1 (undisclosed kit tag); purchased CisBio 63ADK000CPAPEG
Briefly: PD-1/PD-L1 Homogenous Time-Resolved Fluorescence (HTRF) binding assay (CisBio kit). The settings on record: Biochemical PD1/PD-L1 inhibition. The method, then: PD-L1 Enzyme Assay: Homogenous Time-Resolved Fluorescence (HTRF) Binding Assay
All binding studies were performed using PD-1/PD-L1 Binding Assay Kit from CisBio (Catalog #63ADK000CPAPEG), according to the manufacturer's protocol. The interaction between Tag1-PD-1 and […] was detected by anti-Tag1-Eu^3+ (HTRF donor) and anti-Tag2-XL665 (HTRF acceptor). When the donor and acceptor antibodies were brought to close proximity due to PD-1 and PD-L1 binding, excitation of the donor antibody triggered fluorescent resonance energy transfer (FRET) towards the acceptor antibody, which in turn emitted specifically at 665 nm. This specific signal is positively proportional to PD-1/PD-L1 interaction. The compounds blocking PD-1/PD-L1 interaction will cause a reduction in HTRF signal. The necessary reagents were mixed in the following order: 2 μl compounds (or diluents buffer), 4 μl PD-L1 protein, 4 μl PD-1 protein. After an incubation of 15 minutes, 5 μl of anti-Tag1-Eu^3+ and 5 μl of anti-Tag2-XL665 were added. The plate was sealed and incubated at room temperature for 1 h. The fluorescence emission was read at two different wavelengths (665 nm and 620 nm) on a BMG PheraStar® multi-plate reader. Results were calculated from the 665 nm and 620 nm fluorescence signal and expressed in HTRF ratio=(665 nm/620 nm)×10^4.
In general terms: TR-FRET usually uses a lanthanide donor and a delayed reading to cut background.

T1 sequence (Q9NZQ7 19-238 limits assumed): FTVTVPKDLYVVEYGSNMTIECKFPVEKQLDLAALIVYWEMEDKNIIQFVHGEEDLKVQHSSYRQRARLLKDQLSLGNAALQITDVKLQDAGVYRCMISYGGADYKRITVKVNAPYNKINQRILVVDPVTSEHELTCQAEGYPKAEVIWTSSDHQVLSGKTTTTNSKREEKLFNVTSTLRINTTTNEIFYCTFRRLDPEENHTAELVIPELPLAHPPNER

On to `Cc1c(COc2cc(OCc3cccc(C#N)c3)c(CNCCCC(=O)O)c3c2CCC3)cccc1-c1ccccc1` [Compound 44, 4-(((5-((3-cyanobenzyl)oxy)-7-((2-methyl-[1,1′-biphenyl]-3-yl)methoxy)-2,3-dihydro-1H-inden-4-yl)methyl)amino)butanoic acid], for which the IC50 (commonly the midpoint of a concentration-inhibition curve) was < 100 nM.
Then `Cc1c(COc2cc(OCc3cncc(C#N)c3)c(CN3CCCC[C@H]3C(=O)O)c3c2CCC3)cccc1-c1ccccc1` [Compound 46, (S)-1-((5-((5-cyanopyridin-3-yl)methoxy)-7-((2-methyl-[1,1′-biphenyl]-3-yl)methoxy)-2,3-dihydro-1H-inden-4-yl)methyl)piperidine-2-carboxylic acid], with < 100 nM.
Then `Cc1c(COc2cc(OCc3cncc(C#N)c3)c(CN3C[C@H](O)C[C@H]3C(=O)O)c3c2CCC3)cccc1-c1ccccc1` [Compound 47, (2S,4R)-1-((5-((5-cyanopyridin-3-yl)methoxy)-7-((2-methyl-[1,1′-biphenyl]-3-yl)methoxy)-2,3-dihydro-1H-inden-4-yl)methyl)-4-hydroxypyrrolidine-2-carboxylic acid], with < 100 nM.
Take `CC(=O)NCCNCc1c(OCc2cncc(C#N)c2)cc(OCc2cccc(-c3ccccc3)c2C)c2c1CCC2` [Compound 48, N-(2-(((5-((5-cyanopyridin-3-yl)methoxy)-7-((2-methyl-[1,1′-biphenyl]-3-yl)methoxy)-2,3-dihydro-1H-inden-4-yl)methyl)amino)ethyl)acetamide]: the IC50 was < 100 nM.
The figure for `Cc1c(COc2cc(OCc3cncc(C#N)c3)c(CNC(CO)(CO)CO)c3c2CCC3)cccc1-c1ccccc1` [Compound 49, 5-(((4-(((1,3-dihydroxy-2-(hydroxymethyl)propan-2-yl)amino)methyl)-7-((2-methyl-[1,1′-biphenyl]-3-yl)methoxy)-2,3-dihydro-1H-inden-5-yl)oxy)methyl)nicotinonitrile] is < 100 nM; for `Cc1c(COc2cc(OCc3cncc(C#N)c3)c(CN3CCOC[C@H]3C(=O)O)c3c2CCC3)cccc1-c1ccccc1` [Compound 50, (S)-4-((5-((5-cyanopyridin-3-yl)methoxy)-7-((2-methyl-[1,1′-biphenyl]-3-yl)methoxy)-2,3-dihydro-1H-inden-4-yl)methyl)morpholine-3-carboxylicacid] it is < 100 nM; for `Cc1c(COc2cc(OCc3cncc(C#N)c3)c(CN3CC4(CC4)C[C@H]3C(=O)O)c3c2CCC3)cccc1-c1ccccc1` [Compound 52, (S)-5-((5-((5-cyanopyridin-3-yl)methoxy)-7-((2-methyl-[1,1′-biphenyl]-3-yl)methoxy)-2,3-dihydro-1H-inden-4-yl)methyl)-5-azaspiro[2.4]heptane-6-carboxylic acid] it is < 100 nM.
The figure for `CC(=O)NCCN(C)Cc1c(OCc2cccc(C#N)c2)cc(OCc2cccc(-c3ccccc3)c2C)c2c1CCC2` [Compound 53, N-(2-(((5-((3-cyanobenzyl)oxy)-7-((2-methyl-[1,1′-biphenyl]-3-yl)methoxy)-2,3-dihydro-1H-inden-4-yl)methyl)(methyl)amino)ethyl)acetamide] is < 100 nM.
Then `CC(=O)NCCNCc1c(OCc2ccc(C#N)cc2)cc(OCc2cccc(-c3ccccc3)c2C)c2c1CCC2` [Compound 54, N-(2-(((5-((4-cyanobenzyl)oxy)-7-((2-methyl-[1,1′-biphenyl]-3-yl)methoxy)-2,3-dihydro-1H-inden-4-yl)methyl)amino)ethyl)acetamide], with 100 to 500 nM.
In the case of `COc1cc(OCc2cccc(-c3ccccc3)c2C#N)c2c(c1CN1CCCC[C@H]1C(=O)O)CCC2` [Compound 55, (S)-1-((7-((2-cyano-[1,1′-biphenyl]-3-yl)methoxy)-5-methoxy-2,3-dihydro-1H-inden-4-yl)methyl)piperidine-2-carboxylic acid], the IC50 is < 100 nM.
The figure for `COc1cc(OCc2cccc(-c3ccccc3)c2C#N)c2c(c1CNCCNC(C)=O)CCC2` [Compound 56, N-(2-(((7-((2-cyano-[1,1′-biphenyl]-3-yl)methoxy)-5-methoxy-2,3-dihydro-1H-inden-4-yl)methyl)amino)ethyl)acetamide] is < 100 nM.
With `COc1cc(OCc2cccc(-c3ccccc3)c2C#N)c2c(c1CN1C[C@H](O)C[C@H]1C(=O)O)CCC2` [Compound 57, (2S,4R)-1-((7-((2-cyano-[1,1′-biphenyl]-3-yl)methoxy)-5-methoxy-2,3-dihydro-1H-inden-4-yl)methyl)-4-hydroxypyrrolidine-2-carboxylic acid], the IC50 was < 100 nM.
The figure for `COc1cc(OCc2cccc(-c3ccccc3)c2C#N)c2c(c1CNC(CO)(CO)CO)CCC2` [Compound 58, 3-(((7-(((1,3-dihydroxy-2-(hydroxymethyl)propan-2-yl)amino)methyl)-6-methoxy-2,3-dihydro-1H-inden-4-yl)oxy)methyl)-[1,1′-biphenyl]-2-carbonitrile] is < 100 nM; for `COc1cc(OCc2cccc(-c3ccccc3)c2C#N)c2c(c1CN1CCOC[C@H]1C(=O)O)CCC2` [Compound 59, (S)-4-((7-((2-cyano-[1,1′-biphenyl]-3-yl)methoxy)-5-methoxy-2,3-dihydro-1H-inden-4-yl)methyl)morpholine-3-carboxylic acid] it is < 100 nM.
The figure for `COc1cc(OCc2cccc(-c3ccccc3)c2C#N)c2c(c1CNCC(=O)O)CCC2` [Compound 60, ((7-((2-cyano-[1,1′-biphenyl]-3-yl)methoxy)-5-methoxy-2,3-dihydro-1H-inden-4-yl)methyl)glycine] is < 100 nM; for `COc1cc(OCc2cccc(-c3ccccc3)c2C#N)c2c(c1CN1CC3(CC3)C[C@H]1C(=O)O)CCC2` [Compound 61, (S)-5-((7-((2-cyano-[1,1′-biphenyl]-3-yl)methoxy)-5-methoxy-2,3-dihydro-1H-inden-4-yl)methyl)-5-azaspiro[2.4]heptane-6-carboxylic acid] it is < 100 nM.
The figure for `COc1cc(OCc2cccc(-c3ccccc3)c2C#N)c2c(c1CN1CCCCC1CC(=O)O)CCC2` (stereo not shown) [Compound 63, 2-(1-((7-((2-cyano-[1,1′-biphenyl]-3-yl)methoxy)-5-methoxy-2,3-dihydro-1H-inden-4-yl)methyl)piperidin-2-yl)acetic acid] is 100 to 500 nM; for `COc1cc(OCc2cccc(-c3ccccc3)c2C#N)c2c(c1CN(C)CCN(C)C(C)=O)CCC2` [Compound 64, N-(2-(((7-((2-cyano-[1,1′-biphenyl]-3-yl)methoxy)-5-methoxy-2,3-dihydro-1H-inden-4-yl)methyl)(methyl)amino)ethyl)-N-methylacetamide] it is 100 to 500 nM; for `CC(=O)NCCNCc1c(OCCCCC(=O)O)cc(OCc2cccc(-c3ccccc3)c2C)c2c1CCC2` [Compound 65, 5-((4-(((2-acetamidoethyl)amino)methyl)-7-((2-methyl-[1,1′-biphenyl]-3-yl)methoxy)-2,3-dihydro-1H-inden-5-yl)oxy)pentanoic acid] it is < 100 nM.
Regarding `CC(=O)NCCNCc1c(OCCCCC(N)=O)cc(OCc2cccc(-c3ccccc3)c2C)c2c1CCC2` [Compound 66, 5-((4-(((2-acetamidoethyl)amino)methyl)-7-((2-methyl-[1,1′-biphenyl]-3-yl)methoxy)-2,3-dihydro-1H-inden-5-yl)oxy)pentanamide], the IC50 fell in the range of 100 to 500 nM.
Then `Cc1c(COc2cc(OCCCCC(=O)O)c(CN3CCCC[C@H]3C(=O)O)c3c2CCC3)cccc1-c1ccccc1` [Compound 67, (S)-1-((5-(4-carboxybutoxy)-7-((2-methyl-[1,1′-biphenyl]-3-yl)methoxy)-2,3-dihydro-1H-inden-4-yl)methyl)piperidine-2-carboxylic acid], with < 100 nM; and `Cc1c(COc2cc(OCCCCC(N)=O)c(CN3CCCC[C@H]3C(=O)O)c3c2CCC3)cccc1-c1ccccc1` [Compound 68, (S)-1-((5-((5-amino-5-oxopentyl)oxy)-7-((2-methyl-[1,1′-biphenyl]-3-yl)methoxy)-2,3-dihydro-1H-inden-4-yl)methyl)piperidine-2-carboxylic acid], with < 100 nM.
Then `N#Cc1cncc(COc2cc(OCc3cccc(-c4ccccc4)c3C#N)c3c(c2CN2CCCC[C@H]2C(=O)O)CCC3)c1` [Compound 69, (S)-1-((7-((2-cyano-[1,1′-biphenyl]-3-yl)methoxy)-5-((5-cyanopyridin-3-yl)methoxy)-2,3-dihydro-1H-inden-4-yl)methyl)piperidine-2-carboxylic acid], with < 100 nM; and `N#Cc1cncc(COc2cc(OCc3cccc(-c4ccccc4)c3C#N)c3c(c2CN2C[C@H](O)C[C@H]2C(=O)O)CCC3)c1` [Compound 70, (2S,4R)-1-((7-((2-cyano-[1,1′-biphenyl]-3-yl)methoxy)-5-((5-cyanopyridin-3-yl)methoxy)-2,3-dihydro-1H-inden-4-yl)methyl)-4-hydroxypyrrolidine-2-carboxylic acid], with < 100 nM.
The figure for `N#Cc1cncc(COc2cc(OCc3cccc(-c4ccccc4)c3C#N)c3c(c2CN2CCC[C@@H](C(=O)O)C2)CCC3)c1` [Compound 71, (R)-1-((7-((2-cyano-[1,1′-biphenyl]-3-yl)methoxy)-5-((5-cyanopyridin-3-yl)methoxy)-2,3-dihydro-1H-inden-4-yl)methyl)piperidine-3-carboxylic acid] is < 100 nM.
